In patent US20240116985A1, “STAPLED PEPTIDES AND METHODS THEREOF” (priority 2020, published 2024):
pIC50: −log10 of the molar value. Like-named read-outs stand apart in the source and are kept apart here.

Assays:
[1] = target: T1, full-length beta-Catenin (Uniprot ID P35222) (Homo sapiens, UniProt P35222); assay: Fluorescence polarization IC50 (beta-catenin / 5FAM-TCF4 10-53 competition); type: binding
T1 construct: 10 nM full-length beta-Catenin (Uniprot ID P35222)
T1 sequence (P35222 1-781): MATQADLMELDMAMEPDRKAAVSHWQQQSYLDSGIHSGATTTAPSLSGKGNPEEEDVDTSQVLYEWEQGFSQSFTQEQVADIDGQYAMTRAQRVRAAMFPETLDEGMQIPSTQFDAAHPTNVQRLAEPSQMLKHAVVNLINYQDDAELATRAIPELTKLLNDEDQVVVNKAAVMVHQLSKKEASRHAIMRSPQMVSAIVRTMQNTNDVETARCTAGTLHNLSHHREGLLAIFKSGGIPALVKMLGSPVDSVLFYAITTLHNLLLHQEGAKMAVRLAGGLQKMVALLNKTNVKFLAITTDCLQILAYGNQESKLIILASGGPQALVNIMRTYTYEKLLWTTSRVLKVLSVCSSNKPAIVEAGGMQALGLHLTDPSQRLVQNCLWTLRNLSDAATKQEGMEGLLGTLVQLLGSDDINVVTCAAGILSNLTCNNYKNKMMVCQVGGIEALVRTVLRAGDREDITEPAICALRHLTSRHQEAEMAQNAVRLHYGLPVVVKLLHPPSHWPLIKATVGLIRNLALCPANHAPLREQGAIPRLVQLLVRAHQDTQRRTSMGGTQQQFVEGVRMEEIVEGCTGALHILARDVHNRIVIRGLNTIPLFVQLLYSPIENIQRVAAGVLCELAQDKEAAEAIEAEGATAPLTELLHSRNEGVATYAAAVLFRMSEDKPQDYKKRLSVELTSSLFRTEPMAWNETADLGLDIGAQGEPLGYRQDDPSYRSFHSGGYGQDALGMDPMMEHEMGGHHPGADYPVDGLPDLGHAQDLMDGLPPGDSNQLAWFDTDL

[2] = target: T2, beta-catenin/TCF4 engagement (Homo sapiens, UniProt P35222); assay: Nano-BRET target engagement assay (B-cat-Halo & TCF4-Luc in HEK293 cells); type: cell-based
T2 construct: expressed in transfected cells; host or cells: HEK293
T2 sequence (P35222 1-781): T1 sequence (P35222 1-781)

[3] = fluorescence polarization, read-out: beta-Catenin FP IC50
[4] = absolute IC50, read-out: NanoBRET Abs IC50
[5] = beta-Catenin FP IC50, fluorescence polarization
[6] = NanoBRET Abs IC50, absolute IC50
[7] = fluorescence polarization, beta-catenin, read-out: FP EC50

SMILES	pIC50 [1, 3]	pIC50 [2, 4]	pIC50 [1, 7]	pIC50 [1, 5]	pIC50 [2, 6]
CCCC[C@@H]1NC(=O)[C@H](Cc2ccccc2)NC(=O)[C@H](C)NC(=O)[C@H](C)NC(=O)[C@H](Cc2cccc(C(=O)O)c2)NC(=O)[C@H](CC(=O)O)NC(=O)C2(CCCC=CCCCOC(=O)N3CC[C@@](C(=O)N[C@@H](Cc4ccsc4)C(=O)N[C@@H](Cc4csc5ccccc45)C(=O)N[C@@H](CCC(N)=O)C(N)=O)(C3)NC1=O)CCCC=CC[C@]1(CCCN1C(C)=O)C(=O)N[C@@H](CC(=O)O)C(=O)N[C@@H](CC(C)C)C(=O)N2 (stereo partly drawn) [I-1407, Ac-PL3-Asp-Leu-B5-Asp-3COOHF-Ala-Ala-Phe-nLeu-PyrS2-3Thi-BztA-Gln-NH2]	8.30	5.38	–	–	–
CCCC[C@@H]1NC(=O)[C@H](CC(=O)O)NC(=O)[C@]2(CC=CCCCC3(CCCC=CCCCOC(=O)N4CC[C@@](C(=O)N[C@@H](Cc5ccsc5)C(=O)N[C@@H](Cc5csc6ccccc56)C(=O)N[C@@H](CCC(N)=O)C(N)=O)(C4)NC(=O)[C@H](CCCC)NC(=O)[C@H](Cc4ccccc4)NC(=O)[C@H](C)NC(=O)[C@H](C)NC(=O)[C@H](Cc4cccc(C(=O)O)c4)NC(=O)[C@H](CC(=O)O)NC3=O)NC1=O)CCCN2C(C)=O (stereo partly drawn) [I-1408, Ac-PL3-Asp-nLeu-B5-Asp-3COOHF-Ala-Ala-Phe-nLeu-PyrS2-3Thi-BztA-Gln-NH2]	7.48	5.22	–	–	–
CC(=O)N1CCC[C@]12CC=CCCCC1(CCCC=CCCCOC(=O)N3CC[C@@](C(=O)N[C@@H](Cc4ccsc4)C(=O)N[C@@H](Cc4csc5ccccc45)C(=O)N[C@@H](CC(C)C)C(N)=O)(C3)NC(=O)[C@H](CC(C)C)NC(=O)[C@H](Cc3ccccc3)NC(=O)[C@H](C)NC(=O)[C@H](C)NC(=O)[C@H](CC(=O)O)NC(=O)[C@H](CC(=O)O)NC1=O)NC(=O)[C@H](CC(C)(C)C)NC(=O)[C@H](CC(=O)O)NC2=O (stereo partly drawn) [I-1409, Ac-PL3-Asp-Npg-B5-Asp-Asp-Ala-Ala-Phe-Leu-PyrS2-3Thi-BztA-Leu-NH2]	7.13	4.62	–	–	–
CC(=O)N1CCC[C@]12CC=CCCCC1(CCCC=CCCCOC(=O)N3CC[C@@](C(=O)N[C@@H](Cc4ccsc4)C(=O)N[C@@H](Cc4csc5ccccc45)C(=O)N[C@@H](CC(C)C)C(N)=O)(C3)NC(=O)[C@H](CC(C)C)NC(=O)[C@H](Cc3ccccc3)NC(=O)[C@H](C)NC(=O)[C@H](C)NC(=O)[C@H](CC(=O)O)NC(=O)[C@H](CC(=O)O)NC1=O)NC(=O)[C@H](CC(C)C)NC(=O)[C@H](CC(=O)O)NC2=O (stereo partly drawn) [I-1410, Ac-PL3-Asp-Leu-B5-Asp-Asp-Ala-Ala-Phe-Leu-PyrS2-3Thi-BztA-Leu-NH2]	–	–	–	7.10	4.53
CC(=O)N1CCC[C@]12CC=CCCCC1(CCCC=CCCCOC(=O)N3CC[C@@](C(=O)N[C@@H](Cc4ccsc4)C(=O)N[C@@H](Cc4csc5ccccc45)C(=O)N[C@@H](CC(C)C)C(N)=O)(C3)NC(=O)[C@H](CC(C)C)NC(=O)[C@H](Cc3ccccc3)NC(=O)[C@H](C)NC(=O)[C@H](C)NC(=O)[C@H](CC(=O)O)NC(=O)[C@H](CC(=O)O)NC1=O)NC(=O)[C@H](CO)NC(=O)[C@H](CC(=O)O)NC2=O (stereo partly drawn) [I-1414, Ac-PL3-Asp-Ser-B5-Asp-Asp-Ala-Ala-Phe-Leu-PyrS2-3Thi-BztA-Leu-NH2]	–	–	–	7.08	< 4.70
CC(=O)N1CCC[C@]12CC=CCCCC1(CCCC=CCCCOC(=O)N3CC[C@@](C(=O)N[C@@H](Cc4ccccc4Cl)C(=O)N[C@@H](Cc4csc5ccccc45)C(=O)N[C@@H](CC(C)C)C(N)=O)(C3)NC(=O)[C@H](CC(C)C)NC(=O)[C@H](Cc3ccccc3)NC(=O)[C@H](C)NC(=O)[C@H](C)NC(=O)[C@H](CC(=O)O)NC(=O)[C@H](CC(=O)O)NC1=O)NC(=O)[C@H](CC(C)C)NC(=O)[C@H](CC(=O)O)NC2=O (stereo partly drawn) [I-1418, Ac-PL3-Asp-Leu-B5-Asp-Asp-Ala-Ala-Phe-Leu-PyrS2-2C1F-BztA-Leu-NH2]	6.97	< 4.70	6.97	–	–

Second part, led by results:

pIC50 [1, 3]	pIC50 [2, 4]	pIC50 [1, 7]	SMILES	pIC50 [1, 5]	pIC50 [2, 6]
6.96	4.33	6.96	CCCC[C@@H]1NC(=O)[C@H](CC(=O)O)NC(=O)[C@]2(CC=CCCCC3(CCCC=CCCCOC(=O)N4CC[C@@](C(=O)N[C@@H](Cc5ccsc5)C(=O)N[C@@H](Cc5csc6ccccc56)C(=O)N[C@@H](CC(C)C)C(N)=O)(C4)NC(=O)[C@H](CC(C)C)NC(=O)[C@H](Cc4ccccc4)NC(=O)[C@H](C)NC(=O)[C@H](C)NC(=O)[C@H](CC(=O)O)NC(=O)[C@H](CC(=O)O)NC3=O)NC1=O)CCCN2C(C)=O (stereo partly drawn) [I-1411, Ac-PL3-Asp-nLeu-B5-Asp-Asp-Ala-Ala-Phe-Leu-PyrS2-3Thi-BztA-Leu-NH2]	–	–
7.10	< 4.70	7.10	CCCC[C@@H]1NC(=O)[C@H](CC(=O)O)NC(=O)[C@]2(CC=CCCCC3(CCCC=CCCCOC(=O)N4CC[C@@](C(=O)N[C@@H](Cc5ccsc5)C(=O)N[C@@H](Cc5csc6ccccc56)C(=O)N[C@@H](CC(C)C)C(N)=O)(C4)NC(=O)[C@H](CC(C)C)NC(=O)[C@H](Cc4ccccc4)NC(=O)[C@H](C)NC(=O)[C@H](C)NC(=O)[C@H](CC(=O)O)NC(=O)[C@H](CC(=O)O)NC3=O)NC1=O)CCCN2C(C)=O (stereo partly drawn) [I-1412, Ac-PL3-Asp-nLeu-B5-Asp-Asp-Ala-Ala-Phe-Leu-PyrS2-3Thi-BztA-Leu-NH2]	–	–
7.36	4.84	7.47	CC(=O)N1CCC[C@]12CC=CCCCC1(CCCC=CCCCOC(=O)N3CC[C@@](C(=O)N[C@@H](Cc4ccsc4)C(=O)N[C@@H](Cc4c[nH]c5ccccc45)C(=O)N[C@@H](CCC(N)=O)C(N)=O)(C3)NC(=O)[C@H](CC(C)C)NC(=O)[C@H](Cc3ccccc3)NC(=O)[C@H](C)NC(=O)[C@H](C)NC(=O)[C@H](CC(=O)O)NC(=O)[C@H](CC(=O)O)NC1=O)NC(=O)[C@H](CC(C)(C)C)NC(=O)[C@H](CC(=O)O)NC2=O (stereo partly drawn) [I-1431, Ac-PL3-Asp-Npg-B5-Asp-Asp-Ala-Ala-Phe-Leu-PyrS2-3Thi-Trp-Gln-NH2]	–	–
7.57	4.84	–	CC(=O)N1CCC[C@]12CC=CCCCC1(CCCC=CCCCOC(=O)N3CC[C@@](C(=O)N[C@@H](Cc4ccsc4)C(=O)N[C@@H](Cc4c[nH]c5ccccc45)C(=O)N[C@@H](CO)C(N)=O)(C3)NC(=O)[C@H](CC(C)C)NC(=O)[C@H](Cc3ccccc3)NC(=O)[C@H](C)NC(=O)[C@H](C)NC(=O)[C@H](CC(=O)O)NC(=O)[C@H](CC(=O)O)NC1=O)NC(=O)[C@H](CC(C)(C)C)NC(=O)[C@H](CC(=O)O)NC2=O (stereo partly drawn) [I-1432, Ac-PL3-Asp-Npg-B5-Asp-Asp-Ala-Ala-Phe-Leu-PyrS2-3Thi-Trp-Ser-NH2]	–	–
8.15	5.15	–	CC(=O)N1CCC[C@]12CC=CCCCC1(CCCC=CCCCOC(=O)N3CC[C@@](C(=O)N[C@@H](Cc4ccsc4)C(=O)N[C@@H](Cc4csc5ccccc45)C(=O)N[C@@H](CCC(N)=O)C(N)=O)(C3)NC(=O)[C@H](CC(C)C)NC(=O)[C@H](Cc3ccccc3)NC(=O)[C@H](C)NC(=O)[C@H](C)NC(=O)[C@H](CCC(=O)O)NC(=O)[C@H](CC(=O)O)NC1=O)NC(=O)[C@H](CC(C)(C)C)NC(=O)[C@H](CC(=O)O)NC2=O (stereo partly drawn) [I-1437, Ac-PL3-Asp-Npg-B5-Asp-Glu-Ala-Ala-Phe-Leu-PyrS2-3Thi-BztA-Gln-NH2]	–	–
8.30	5.13	–	CC(=O)N1CCC[C@]12CC=CCCCC1(CCCC=CCCCOC(=O)N3CC[C@@](C(=O)N[C@@H](Cc4ccsc4)C(=O)N[C@@H](Cc4csc5ccccc45)C(=O)N[C@@H](CCC(N)=O)C(N)=O)(C3)NC(=O)[C@H](CC(C)C)NC(=O)[C@H](Cc3ccccc3)NC(=O)[C@H](C)NC(=O)[C@H](C)NC(=O)[C@H](CCCC(=O)O)NC(=O)[C@H](CC(=O)O)NC1=O)NC(=O)[C@H](CC(C)(C)C)NC(=O)[C@H](CC(=O)O)NC2=O (stereo partly drawn) [I-1438, Ac-PL3-Asp-Npg-B5-Asp-Aad-Ala-Ala-Phe-Leu-PyrS2-3Thi-BztA-Gln-NH2]	–	–
6.46	< 4.70	–	CC(=O)N1CCC[C@]12CC=CCCCC1(CCCC=CCCCOC(=O)N3CC[C@@](C(=O)N[C@@H](Cc4ccsc4)C(=O)N[C@@H](Cc4csc5ccccc45)C(=O)N[C@@H](CCC(N)=O)C(N)=O)(C3)NC(=O)[C@H](CC(C)C)NC(=O)[C@H](Cc3ccccc3)NC(=O)[C@H](C)NC(=O)[C@H](C)NC(=O)[C@H](Cc3c[nH]c4ccccc34)NC(=O)[C@H](CC(=O)O)NC1=O)NC(=O)[C@H](CC(C)(C)C)NC(=O)[C@H](CC(=O)O)NC2=O (stereo partly drawn) [I-1439, Ac-PL3-Asp-Npg-B5-Asp-Trp-Ala-Ala-Phe-Leu-PyrS2-3Thi-BztA-Gln-NH2]	–	–
7.59	4.68	–	CC(=O)N1CCC[C@]12CC=CCCCC1(CCCC=CCCCOC(=O)N3CC[C@@](C(=O)N[C@@H](Cc4ccsc4)C(=O)N[C@@H](Cc4csc5ccccc45)C(=O)N[C@@H](CCC(N)=O)C(N)=O)(C3)NC(=O)[C@H](CC(C)C)NC(=O)[C@H](Cc3ccccc3)NC(=O)[C@H](C)NC(=O)[C@H](C)NC(=O)[C@H](CCC(N)=O)NC(=O)[C@H](CC(=O)O)NC1=O)NC(=O)[C@H](CC(C)(C)C)NC(=O)[C@H](CC(=O)O)NC2=O (stereo partly drawn) [I-1440, Ac-PL3-Asp-Npg-B5-Asp-Gln-Ala-Ala-Phe-Leu-PyrS2-3Thi-BztA-Gln-NH2]	–	–
